Earlier results on one compound are cited in US20180344730A1, “MEDICAMENT FOR TREATING MENTAL AND BEHAVIOURAL DISORDERS” (Sumitomo Dainippon Pharma Co., Ltd., priority 2012, published 2018).

One data set has as its target histamine H1 receptors (Homo sapiens, UniProt P35367).
In data set [1] the target is T1, noradrenaline α2C receptors (Homo sapiens, UniProt P18825).
T1 sequence (P18825 1-462): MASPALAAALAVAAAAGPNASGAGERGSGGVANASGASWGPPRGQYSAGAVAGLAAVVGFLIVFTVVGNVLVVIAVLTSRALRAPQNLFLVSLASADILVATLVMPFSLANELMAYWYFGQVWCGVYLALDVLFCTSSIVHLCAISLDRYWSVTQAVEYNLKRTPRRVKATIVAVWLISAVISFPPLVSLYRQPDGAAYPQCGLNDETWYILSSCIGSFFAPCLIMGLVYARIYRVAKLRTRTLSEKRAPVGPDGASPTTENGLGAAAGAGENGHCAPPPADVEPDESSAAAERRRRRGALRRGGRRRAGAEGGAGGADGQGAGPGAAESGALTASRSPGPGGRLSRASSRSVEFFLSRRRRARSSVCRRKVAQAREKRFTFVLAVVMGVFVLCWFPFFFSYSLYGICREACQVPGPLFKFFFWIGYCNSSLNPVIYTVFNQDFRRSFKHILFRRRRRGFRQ

The next data set addresses dopamine D2 receptors (Homo sapiens, UniProt P14416).
Data set [2] concerns the target serotonin 5-HT2A receptors (Homo sapiens, UniProt P28223).
Data set [3] has as its target T2, serotonin 5-HT1A receptors (Homo sapiens, UniProt P08908).
T2 sequence (P08908 1-422): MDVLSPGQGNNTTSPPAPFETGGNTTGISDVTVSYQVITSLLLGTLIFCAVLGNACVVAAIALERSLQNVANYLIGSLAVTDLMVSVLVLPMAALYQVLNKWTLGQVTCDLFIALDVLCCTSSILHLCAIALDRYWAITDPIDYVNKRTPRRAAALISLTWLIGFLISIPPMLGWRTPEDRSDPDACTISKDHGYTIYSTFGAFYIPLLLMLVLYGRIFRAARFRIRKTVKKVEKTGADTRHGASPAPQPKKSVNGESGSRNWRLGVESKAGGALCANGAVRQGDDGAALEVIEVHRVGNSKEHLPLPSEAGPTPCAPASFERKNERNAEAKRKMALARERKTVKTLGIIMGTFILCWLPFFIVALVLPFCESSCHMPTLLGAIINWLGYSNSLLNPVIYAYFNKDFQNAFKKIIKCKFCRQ

In a further data set the target is T3, muscarinic M1 receptors (Homo sapiens, UniProt P11229).
T3 sequence (P11229 1-460): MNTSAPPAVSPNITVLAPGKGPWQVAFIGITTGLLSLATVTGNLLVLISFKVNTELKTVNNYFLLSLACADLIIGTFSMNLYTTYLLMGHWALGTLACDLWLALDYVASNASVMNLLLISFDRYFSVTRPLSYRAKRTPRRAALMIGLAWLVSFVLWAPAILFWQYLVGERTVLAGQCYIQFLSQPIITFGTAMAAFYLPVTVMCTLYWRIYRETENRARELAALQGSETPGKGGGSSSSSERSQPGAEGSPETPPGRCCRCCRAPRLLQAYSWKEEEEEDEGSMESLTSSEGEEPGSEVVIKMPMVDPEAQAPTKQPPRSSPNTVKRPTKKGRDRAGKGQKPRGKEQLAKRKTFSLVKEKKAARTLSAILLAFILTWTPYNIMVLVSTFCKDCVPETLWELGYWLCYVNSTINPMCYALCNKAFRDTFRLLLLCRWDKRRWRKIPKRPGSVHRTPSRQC

For data set [4], the target named is serotonin 5-HT7 receptors (Homo sapiens, UniProt P34969).
serotonin 5-HT7 receptors, sequence (P34969 whole entry): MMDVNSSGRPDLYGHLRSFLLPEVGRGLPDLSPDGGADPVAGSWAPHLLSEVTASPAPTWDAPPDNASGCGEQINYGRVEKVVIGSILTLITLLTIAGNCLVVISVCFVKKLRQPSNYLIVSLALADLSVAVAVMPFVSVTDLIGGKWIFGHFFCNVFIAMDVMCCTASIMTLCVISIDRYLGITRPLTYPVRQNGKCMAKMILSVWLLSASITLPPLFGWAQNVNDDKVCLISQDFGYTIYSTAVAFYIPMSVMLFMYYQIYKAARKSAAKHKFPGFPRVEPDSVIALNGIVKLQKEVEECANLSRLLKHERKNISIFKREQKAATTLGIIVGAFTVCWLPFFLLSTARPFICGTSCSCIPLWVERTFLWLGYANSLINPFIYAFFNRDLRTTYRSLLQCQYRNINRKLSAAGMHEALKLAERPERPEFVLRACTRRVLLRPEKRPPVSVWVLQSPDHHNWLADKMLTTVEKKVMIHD

dopamine D2 receptors, sequence (P14416 whole entry): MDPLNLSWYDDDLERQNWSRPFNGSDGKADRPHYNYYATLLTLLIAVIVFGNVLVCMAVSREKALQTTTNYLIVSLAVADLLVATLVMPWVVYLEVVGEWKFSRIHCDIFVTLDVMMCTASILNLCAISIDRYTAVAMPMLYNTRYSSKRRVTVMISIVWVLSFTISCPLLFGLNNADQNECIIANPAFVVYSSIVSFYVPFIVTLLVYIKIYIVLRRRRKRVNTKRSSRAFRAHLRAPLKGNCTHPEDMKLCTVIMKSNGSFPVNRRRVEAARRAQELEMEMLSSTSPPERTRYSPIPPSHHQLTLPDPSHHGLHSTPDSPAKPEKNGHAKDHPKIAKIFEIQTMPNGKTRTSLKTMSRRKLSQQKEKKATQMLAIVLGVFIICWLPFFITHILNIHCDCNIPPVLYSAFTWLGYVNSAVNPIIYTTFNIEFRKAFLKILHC
histamine H1 receptors, sequence (P35367 whole entry): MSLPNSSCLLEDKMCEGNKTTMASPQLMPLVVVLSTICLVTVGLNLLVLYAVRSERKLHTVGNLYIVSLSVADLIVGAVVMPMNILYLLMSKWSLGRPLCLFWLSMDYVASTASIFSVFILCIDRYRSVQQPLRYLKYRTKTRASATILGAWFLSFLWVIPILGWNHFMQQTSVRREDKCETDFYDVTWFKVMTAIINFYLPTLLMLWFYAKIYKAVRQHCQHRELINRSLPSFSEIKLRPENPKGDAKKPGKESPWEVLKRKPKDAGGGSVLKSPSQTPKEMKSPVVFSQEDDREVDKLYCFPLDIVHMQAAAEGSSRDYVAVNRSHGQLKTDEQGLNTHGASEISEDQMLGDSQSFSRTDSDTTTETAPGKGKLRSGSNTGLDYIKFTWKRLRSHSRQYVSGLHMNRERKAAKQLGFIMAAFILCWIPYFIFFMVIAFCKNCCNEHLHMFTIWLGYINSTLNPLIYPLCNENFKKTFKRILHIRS
serotonin 5-HT2A receptors, sequence (P28223 whole entry): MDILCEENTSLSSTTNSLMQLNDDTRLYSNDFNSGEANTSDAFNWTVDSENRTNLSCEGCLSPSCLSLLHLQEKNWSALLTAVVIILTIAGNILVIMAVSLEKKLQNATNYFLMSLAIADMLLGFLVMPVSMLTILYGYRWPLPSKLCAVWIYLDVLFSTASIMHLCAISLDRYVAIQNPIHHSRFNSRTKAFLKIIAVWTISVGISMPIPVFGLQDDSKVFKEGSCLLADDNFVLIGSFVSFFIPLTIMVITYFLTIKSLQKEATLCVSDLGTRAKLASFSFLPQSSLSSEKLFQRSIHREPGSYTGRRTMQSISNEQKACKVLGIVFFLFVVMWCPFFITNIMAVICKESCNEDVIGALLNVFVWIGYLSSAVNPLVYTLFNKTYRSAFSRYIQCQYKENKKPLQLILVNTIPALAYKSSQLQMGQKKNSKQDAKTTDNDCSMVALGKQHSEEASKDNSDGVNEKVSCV

As for `O=C1[C@@H]2[C@H]3CC[C@H](C3)[C@@H]2C(=O)N1C[C@@H]1CCCC[C@H]1CN1CCN(c2nsc3ccccc23)CC1` [Lurasidone, (3aR, 4S, 7R, 7aS)-2-{(1R, 2R)-2-[4-(1,2-benzisothiazol-3-yl)piperazin-1-ylmethyl]cyclo-hexylmethyl}hexahydro-4,7-methano-2H-isoindole-1,3-dione], the “affinity for histamine H1 receptors” value on histamine H1 receptors is listed as “minimal to no affinity”. Besides, the “affinity for noradrenaline α2C receptors” value in data set [1] is recorded as “high affinity”. For the same compound, the “affinity for dopamine D2 receptors” value on dopamine D2 receptors is “high affinity”. Besides, the “affinity for serotonin 5-HT2A receptors” value in data set [2] is on record as “high affinity”. Also, in data set [3], the “affinity for serotonin 5-HT1A receptors” value is reported as “high affinity”. In addition, the “affinity for muscarinic M1 receptors” value at muscarinic M1 receptors is listed as “minimal to no affinity”. Further, the “affinity for serotonin 5-HT7 receptors” value in data set [4] is listed as “high affinity”.
